Assay results published in US20260250318A1, “COMPOSITIONS AND METHODS FOR CROSSING THE BLOOD BRAIN BARRIER” (VOYAGER THERAPEUTICS, INC., priority 2022, published 2026).

Legend:
[1] = test system: brains, heart, liver, muscle, and DRG of the NHPs; assay: Maturation of TTM-001 and TTM-002 capsids, NGS enrichment in NHP tissues; type: in vivo; settings: relative to AAV9 control
Method in brief: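 Variants carry mutations within and flanking the loop IV peptide insert: positions 450–466 were triplet-randomized, while positions 449–466 received low-frequency point mutations. The combined pool went into two NHPs, and each peptide was scored by NGS enrichment ratio against AAV9.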

[2] = test system: brain; assay: Matured TTM-001 and TTM-002 variants, NGS enrichment in mouse brain; type: in vivo, mice; settings: relative to AAV9 control
[3] = NGS fold-enrichment, DRG of NHPs
[4] = NGS fold-enrichment, RNA, brain of NHPs
[5] = NGS fold-enrichment, heart of NHPs
[6] = NGS fold-enrichment, liver DNA of NHPs
[7] = NGS fold-enrichment, liver RNA of NHPs
[8] = NGS fold-enrichment, muscle of NHPs
[9] = NGS fold-enrichment, brain of mice
[10] = NGS fold-enrichment of matured AAV capsid variants, NHP brain, RNA
[11] = NGS fold-enrichment of RNA, NHP brain
[12] = NGS fold-enrichment, NHP liver DNA
[13] = NGS fold-enrichment, NHP liver RNA
[14] = NGS fold-enrichment, NHP muscle
[15] = NGS fold-enrichment, mouse brain

Row | Sequence | Fold Enrichment relative to AAV9, Brain (NHP) [1, 10] [fold] | Fold Enrichment relative to AAV9, DRG (NHP) ([1]; NHP DRG) [fold] | Fold Enrichment relative to AAV9, Heart (NHP) ([1]; NHP heart) [fold] | Fold Enrichment relative to AAV9, Liver DNA (NHP) ([1]; NHP liver, DNA) [fold] | Fold Enrichment relative to AAV9, Liver RNA (NHP) ([1]; NHP liver, RNA) [fold] | Fold Enrichment relative to AAV9, Muscle (NHP) ([1]; NHP muscle) [fold] | Fold Enrichment relative to AAV9, Brain (Mouse) ([2]; mouse brain) [fold] | Fold Enrichment relative to AAV9, Brain (NHP) [1, 11] [fold] | Fold Enrichment relative to AAV9, DRG (NHP) ([1]; NGS fold-enrichment, NHP DRG) [fold] | Fold Enrichment relative to AAV9, Heart (NHP) ([1]; NGS fold-enrichment, NHP heart) [fold] | Fold Enrichment relative to AAV9, Liver DNA (NHP) [1, 12] [fold] | Fold Enrichment relative to AAV9, Liver RNA (NHP) [1, 13] [fold] | Fold Enrichment relative to AAV9, Muscle (NHP) [1, 14] [fold] | Fold Enrichment relative to AAV9, Brain (Mouse) [2, 15] [fold] | other results
1 | KNINGSGSPHSKAQNQQT (KNTNGSGSPHSKAQNQQT) |  |  |  |  |  |  |  |  |  |  |  |  |  |  | Fold Enrichment relative to AAV9, DRG (NHP) [1, 3]: 0.000 fold; Fold Enrichment relative to AAV9, Brain (NHP) [1, 4]: 78.445 fold; Fold Enrichment relative to AAV9, Heart (NHP) [1, 5]: 0.000 fold; Fold Enrichment relative to AAV9, Liver DNA (NHP) [1, 6]: 0.177 fold; Fold Enrichment relative to AAV9, Liver RNA (NHP) [1, 7]: 0.571 fold; Fold Enrichment relative to AAV9, Muscle (NHP) [1, 8]: 0.000 fold; Fold Enrichment relative to AAV9, Brain (Mouse) [2, 9]: 89.719 fold
2 | KNINGSGSPHSKAQSQQT |  |  |  |  |  |  |  |  |  |  |  |  |  |  | Fold Enrichment relative to AAV9, DRG (NHP) [1, 3]: 0.000 fold; Fold Enrichment relative to AAV9, Brain (NHP) [1, 4]: 73.757 fold; Fold Enrichment relative to AAV9, Heart (NHP) [1, 5]: 0.000 fold; Fold Enrichment relative to AAV9, Liver DNA (NHP) [1, 6]: 0.041 fold; Fold Enrichment relative to AAV9, Liver RNA (NHP) [1, 7]: 0.000 fold; Fold Enrichment relative to AAV9, Muscle (NHP) [1, 8]: 0.000 fold; Fold Enrichment relative to AAV9, Brain (Mouse) [2, 9]: 57.432 fold
3 | KNNLGSGSPHSKAQNQQT | 50.670 | 0.000 | 0.019 | 0.121 | 0.406 | 0.000 | 102.408 |  |  |  |  |  |  |  | 
4 | KNSIGSGSPHSKAQNQQT | 57.101 | 0.000 | 0.052 | 0.074 | 0.083 | 0.000 | 97.381 |  |  |  |  |  |  |  | 
5 | KNSLGSGSPHSKAQNQQT | 56.621 | 0.000 | 0.028 | 0.162 | 0.308 | 0.000 | 101.942 |  |  |  |  |  |  |  | 
6 | KNTNGSGSPHSKAQNQQT |  |  |  |  |  |  |  | 78.445 | 0.000 | 0.000 | 0.177 | 0.571 | 0.000 | 89.719 | 
7 | KNVNGSGSPHSKAQNQQT | 58.481 | 0.000 | 0.000 | 0.166 | 0.917 | 0.000 | 53.379 |  |  |  |  |  |  |  | 
8 | KNVVGHDSPHKSGQNQQT |  |  |  |  |  |  |  | 75.330 | 0.000 | 0.024 | 0.049 | 0.063 | 0.000 | 8.077 | 
9 | KQGEGSGSPHSKAQNQQT | 58.752 | 0.000 | 0.000 | 0.151 | 0.000 | 0.000 | 135.300 |  |  |  |  |  |  |  | 
10 | KSDIGSGSPHSKAQNQQT | 57.592 | 0.000 | 0.000 | 0.128 | 0.844 | 0.000 | 107.342 |  |  |  |  |  |  |  | 
11 | KSDKGSGSPHSKAQNQQT | 58.248 | 0.000 | 0.000 | 0.166 | 0.076 | 0.000 | 146.566 |  |  |  |  |  |  |  | 
12 | KSDQGSGSPHSKAQNQQT |  |  |  |  |  |  |  | 80.076 | 0.000 | 0.000 | 0.124 | 0.993 | 0.000 | 151.911 | Fold Enrichment relative to AAV9, DRG (NHP) [1, 3]: 0.000 fold; Fold Enrichment relative to AAV9, Brain (NHP) [1, 4]: 80.076 fold; Fold Enrichment relative to AAV9, Heart (NHP) [1, 5]: 0.000 fold; Fold Enrichment relative to AAV9, Liver DNA (NHP) [1, 6]: 0.124 fold; Fold Enrichment relative to AAV9, Liver RNA (NHP) [1, 7]: 0.993 fold; Fold Enrichment relative to AAV9, Muscle (NHP) [1, 8]: 0.000 fold; Fold Enrichment relative to AAV9, Brain (Mouse) [2, 9]: 151.911 fold
13 | KSEKGSGSPHSKAQNQQT | 58.566 | 0.000 | 0.010 | 0.059 | 1.601 | 0.011 | 158.931 |  |  |  |  |  |  |  | 
14 | KSELGHDSPHKSGQNQQT |  |  |  |  |  |  |  | 107.059 | 0.000 | 0.005 | 0.055 | 0.000 | 0.000 | 13.285 | 
15 | KSELGSGSPHSKAQNQQT | 55.997 | 0.000 | 0.005 | 0.239 | 0.881 | 0.000 | 120.521 |  |  |  |  |  |  |  | 
16 | KSIKGNGSPHSKAQNQQT |  |  |  |  |  |  |  | 75.196 | 0.000 | 0.000 | 0.000 | 0.000 | 0.000 | 90.251 | Fold Enrichment relative to AAV9, DRG (NHP) [1, 3]: 0.000 fold; Fold Enrichment relative to AAV9, Brain (NHP) [1, 4]: 75.196 fold; Fold Enrichment relative to AAV9, Heart (NHP) [1, 5]: 0.000 fold; Fold Enrichment relative to AAV9, Liver DNA (NHP) [1, 6]: 0.000 fold; Fold Enrichment relative to AAV9, Liver RNA (NHP) [1, 7]: 0.000 fold; Fold Enrichment relative to AAV9, Muscle (NHP) [1, 8]: 0.000 fold; Fold Enrichment relative to AAV9, Brain (Mouse) [2, 9]: 90.251 fold
17 | KSINESGSPHSKAQNQQI |  |  |  |  |  |  |  | 113.833 | 0.000 | 0.000 | 0.000 | 0.000 | 0.000 | 67.649 | Fold Enrichment relative to AAV9, DRG (NHP) [1, 3]: 0.000 fold; Fold Enrichment relative to AAV9, Brain (NHP) [1, 4]: 113.833 fold; Fold Enrichment relative to AAV9, Heart (NHP) [1, 5]: 0.000 fold; Fold Enrichment relative to AAV9, Liver DNA (NHP) [1, 6]: 0.000 fold; Fold Enrichment relative to AAV9, Liver RNA (NHP) [1, 7]: 0.000 fold; Fold Enrichment relative to AAV9, Muscle (NHP) [1, 8]: 0.000 fold; Fold Enrichment relative to AAV9, Brain (Mouse) [2, 9]: 67.649 fold
18 | KSINGGGSPHSKAQYQQT | 54.612 | 0.000 | 0.000 | 0.010 | 0.105 | 0.000 | 65.952 |  |  |  |  |  |  |  | 
19 | KSINGHDSPHKSGQIQHT |  |  |  |  |  |  |  | 87.598 | 0.000 | 0.480 | 0.347 | 0.714 | 0.000 | 13.872 | 
20 | KSINGHDSPHKSGQRQHT |  |  |  |  |  |  |  | 80.132 | 0.000 | 0.357 | 0.000 | 0.000 | 0.000 | 9.851 | 
21 | KSINGHDSPHKSGQYQHT |  |  |  |  |  |  |  | 88.195 | 0.000 | 0.099 | 0.149 | 0.000 | 0.000 | 14.485 | 
